Results from patent US4194055A, “15,16-dioxy prostenoic acids and esters” (American Cyanamid Company, priority 1978, dated 1980).

Legend:
[1] = system: basal gastric acid secretion; experiment: Inhibition of gastric acid secretion in the acute gastric fistula rat; format: in vivo, Female Sprague-Dawley rats; conditions: intraduodenal
Protocol: The compounds of this invention are also useful as inhibitors of gastric acid secretion and peptic ulcer formation and may be used for the treatment of gastric hyperacidity, gastric erosion, and peptic ulcer. Inhibition of basal gastric acid secretion can be determined by the following procedure.
Female Sprague-Dawley rats weighing 140-160 grams are fasted in individual cages for 18-24 hours. The rats are then lightly anesthetized with ether and their front teeth extracted to avoid destruction of the plastic cannula. A midline incision is then made and the stomach and duodenum exposed. A flanged polyvinyl tube is inserted into the fundic portion of the stomach and secured with a purse string suture line using 4-O Mersilene. The rat is then dosed by injection of the compound into the duodenum (1.0 ml. per 100 gram body weight). After dosing, the abdominal wall and skin are closed using metal wound clips. The rat is replaced in a cage containing a longitudinal slit to allow the polyvinyl tube to hang freely. An 8 ml. plastic collecting tube is attached to the flanged cannula and hangs freely below the cage. The first 30 minute sample is discarded designating this time as zero. The collecting tube is attached again and samples removed at the end of 60 and 120 minutes. The hourly samples are then transferred to a 15 ml. centrifuge and centrifuged for 5-10 minutes. Total and sediment volume are then recorded with the supernatant volume being used as volume of secretion. A 1 ml. or less aliquot is then removed and placed in a 50 ml. beaker containing 10 ml. of distilled water. This sample is then titrated using 0.01 N NaOH to pH 7.0 using a Beckman zeromatic pH meter. Volume, titratable acidity (meq/L) and total acid output (ueg/hour) are recorded. Percent inhibition is determined by comparison with the appropriate control. Groups of three rats were used for preliminary testing, and groups of six rats were used for dose-response evaluations. All compounds are administered in a vehicle consisting of 0.5% methocel, 0.4% tween 80, and saline at a constant volume of 1 ml./100 gram rat. Samples are dispersed by sonification. Percent inhibition is calculated on basis of concurrent vehicle control.
In Table B which follows is given the effect on total acid output after 60 minutes (response A) and 120 minutes (response B) for various doses of representative compounds of this invention.

[2] = system: bronchospasms elicited by intravenous injections of 5-hydroxytryptamine; experiment: Bronchodilator activity (Konzett assay) against 5-hydroxytryptamine; format: in vivo, guinea pigs; conditions: Cavia porcellus; three logarithmic cummulative intravenous doses; spasmogen 5-hydroxytryptamine i.v.; read-out: Bronchodilator Activity (Konzett Assays) ED50, Spasmogenic Agent 5-Hydroxytryptamine
Protocol: (§1) The compounds of this invention are useful as bronchodilators for the treatment of asthma and chronic bronchitis. Bronchodilator activity is determined in guinea pigs against bronchospasms elicited by intravenous injections of 5-hydroxytryptamine, histamine or acetylcholine by the Konzett procedure. [See J. Lulling, P. Lievens, F. El Sayed and J. Prignot, Arzneimittel-Forschung, 18, 955 (1968).]
(§2) In Table A which follows bronchodilator activity for representative compounds of this invention against one or more of three spasmogenic agents is expressed in an ED50 determined from the results obtained with three logarithmic cummulative intravenous doses.

[3] = system: bronchospasms elicited by intravenous injections of histamine; experiment: Bronchodilator activity (Konzett assay) against histamine; format: in vivo, guinea pigs; conditions: Cavia porcellus; three logarithmic cummulative intravenous doses; spasmogen histamine i.v.; read-out: Bronchodilator Activity (Konzett Assays) ED50, Spasmogenic Agent Histamine
Protocol: as §1, §2

[4] = system: Mean arterial blood pressure; experiment: Hypotensive activity in anesthetized normotensive rats; format: in vivo, Royalhart, Wistar strain, male; conditions: Rattus norvegicus, iv, infused over one minute, read-out: % Decrease Mean Arterial Blood Pressure
Protocol: The animals used are Royalhart, Wistar strain, male, normotensive rats weighing 250-300 g. The rats are anesthetized using a 100 mg./ml. saline solution of urethane at a rate of 900 mg./kg. intraperitoneally.
The instrumentation used in a Brush model 260 recorder, Statham mode P23Db pressure transducer and Harvard model 940 infusion pump with a 6 cc syringe at speed 4.
The left carotid artery is cannulated with polyethylene tubing for arterial blood pressure. The left external juglar vein is cannulated with polyethylene tubing for […] the test compound is infused over a one minute period in a volume of 0.5 ml., […] (ethanol, 1 M NaHCO3 or saline) and then flushed with 0.4 ml. of saline.
Mean arterial blood pressure is then measured in two test animals per compound against a control value.

[5] = system: bronchospasms elicited by intravenous injections of acetylcholine; experiment: Bronchodilator activity (Konzett assay) against acetylcholine; format: in vivo, guinea pigs; conditions: Cavia porcellus; three logarithmic cummulative intravenous doses; spasmogen acetylcholine i.v.; read-out: Bronchodilator Activity (Konzett Assays) ED50, Spasmogenic Agent Acetylcholine
Protocol: as §1, §2

[6] = system: basal gastric acid secretion; experiment: Inhibition of gastric acid secretion in the acute gastric fistula rat; format: in vivo, Female Sprague-Dawley rats; conditions: oral

CCCCC(OC)C(O)/C=C/C1CCC(=O)C1CCCCCCC(=O)OCC (mixture of isomers) [all racemic erythro ethyl 9-oxo-15-hydroxy-16-methoxy-13-trans-prostenoate]
% Inhibition of Total Acid Output After 60 min. ([1]; 10 mg./kg.): 43% | % Inhibition of Total Acid Output After 120 min. ([1]; 10 mg./kg.): 0%

CCCCC(O)C(O)/C=C/C1CCC(=O)C1CCCCCCC(=O)O (mixture of isomers) [all racemic erythro-9-oxo-15,16-dihydroxy-13-trans-prostenoic acid]
ED50 [2]: 0.537 mg/kg | ED50 [3]: 0.01 mg/kg

CCCCC1OC(C)(C)OC1/C=C/C1C(OC2CCCCO2)CC(=O)C1C/C=C\CCCC(=O)O (mixture of isomers) [d,l-erythro-9-oxo-11α-tetrahydropyranyloxy-15,16-isopropylidenedioxy-5-cis,13-trans-prostadienoic acid]
% Inhibition of Total Acid Output After 60 min. ([1]; 10 mg./kg.): 55% | % Inhibition of Total Acid Output After 120 min. ([1]; 10 mg./kg.): 29%

CCCCC1OC(C)(C)OC1/C=C/C1CCC(=O)C1CCCCCCC(=O)O (mixture of isomers) [d,l-erythro-9-oxo-15,16-isopropylidenedioxy-13-trans-prostenoic acid]
inhibition in vivo at 1.3 mg/kg ([4]; 1.3 mg./kg.): 63% | inhibition in vivo at 2.5 mg/kg ([4]; 2.5 mg./kg.): 21%

CCCCC(O)C(O)CCC1CCC(=O)C1CCCCCCC(=O)O (racemic) [all racemic erythro-9-oxo-15,16-dihydroxy-prostanoic acid]
% Inhibition of Total Acid Output After 60 min. ([1]; 10 mg./kg.): 56% | % Inhibition of Total Acid Output After 120 min. ([1]; 10 mg./kg.): 46%

CCCC[C@H](OC)[C@H](O)/C=C/[C@H]1C=CC(=O)[C@@H]1C/C=C\CCCC(=O)O (relative stereo) [d1-erythro-9-oxo-15-hydroxy-16-methoxy-5-cis,10,13-trans-prostatrienoic acid]
inhibition in vivo at 1.9 mg/kg [4]: 26%

CCCC[C@H](OC)[C@H](O)/C=C/[C@H]1[C@H](O)CC(=O)[C@@H]1C/C=C\CCCC(=O)O (relative stereo) [d,1-erythro-9-oxo-11α,15-dihydroxy-16-methoxy-5-cis,13-trans-prostadienoic acid]
inhibition in vivo at 1.8 mg/kg ([4]; 1.8 mg./kg.): 44%

CCCC[C@H](OC)[C@H](O)/C=C/[C@H]1CCC(=O)[C@@H]1CCCCCCC(=O)O (relative stereo) [d,1-erythro-9-oxo-15-hydroxy-16-methoxy-13-trans-prostenoic acid]
ED50 [3]: > 3.2 mg/kg | ED50 [5]: > 0.32 mg/kg | inhibition in vivo at 2.1 mg/kg [4]: 29%

CCCC[C@@H](O)[C@@H](O)/C=C/[C@H]1CCC(=O)[C@@H]1CCCCCCC(=O)OCC (relative stereo) [d,l-erythro ethyl 9-oxo-15-epi-16-dihydroxy-13-trans-prostenoate]
inhibition in vivo at 2.4 mg/kg [4]: 33%

CCCC[C@@H](OC)[C@@H](O)/C=C/[C@H]1CCC(=O)[C@@H]1CCCCCCC(=O)OCC (relative stereo) [d,l-erythro ethyl 9-oxo-15-epi-hydroxy-16-methoxy-13-trans-prostenoate]
inhibition in vivo at 2.3 mg/kg ([4]; 2.3 mg./kg.): 9%

CCCC[C@H](O)[C@H](O)/C=C/[C@H]1CCC(=O)[C@@H]1CCCCCCC(=O)O (relative stereo) [d,l-erythro-9-oxo-15,16-dihydroxy-13-trans-prostenoic acid]
% Inhibition of Total Acid Output After 60 min. ([1]; 2.5 mg./kg.): 77% | % Inhibition of Total Acid Output After 120 min. ([1]; 2.5 mg./kg.): 76% | inhibition in vivo at 2.1 mg/kg [4]: 23%

CCCC[C@@H](O)[C@@H](O)/C=C/[C@H]1CCC(=O)[C@@H]1CCCCCCC(=O)O (relative stereo) [d,l-erythro-9-oxo-15-epi,16-dihydroxy-13-trans-prostenoic acid]
% Inhibition of Total Acid Output After 60 min. ([1]; 10 mg./kg.): 0% | % Inhibition of Total Acid Output After 120 min. ([1]; 10 mg./kg.): 42%

CCCC[C@H](O)[C@H](O)/C=C/[C@H]1[C@H](O)CC(=O)[C@@H]1C/C=C\CCCC(=O)O (relative stereo) [dl-erythro-9-oxo-11α,15,16-trihydroxy-5-cis,13-trans-prostadienoic acid]
ED50 [2]: 0.024 mg/kg | ED50 [3]: 0.0098 mg/kg | ED50 [5]: 0.013 mg/kg | % Inhibition of Total Acid Output After 60 min. ([1]; 10 mg./kg.): 98% | % Inhibition of Total Acid Output After 120 min. ([1]; 10 mg./kg.): 55% | inhibition in vivo at 0.1 mg/kg ([4]; 0.1 mg./kg.): 6% | % Inhibition of Total Acid Output After 60 min. ([6]; 5 mg./kg.): 86% | % Inhibition of Total Acid Output After 120 min. ([6]; 5 mg./kg.): 89%

CCCC[C@@H](O)[C@@H](O)/C=C/[C@H]1[C@H](O)CC(=O)[C@@H]1C/C=C\CCCC(=O)O (relative stereo) [dl-erythro-9-oxo-11α,15-epi,16-trihydroxy-5-cis,13-trans-prostadienoic acid]
ED50 [2]: 1.28 mg/kg | ED50 [5]: 2.43 mg/kg | % Inhibition of Total Acid Output After 60 min. ([1]; 10 mg./kg.): 100% | % Inhibition of Total Acid Output After 120 min. ([1]; 10 mg./kg.): 82% | inhibition in vivo at 2 mg/kg ([4]; 2.0 mg./kg.): 57% | % Inhibition of Total Acid Output After 60 min. ([6]; 10 mg./kg.): 66% | % Inhibition of Total Acid Output After 120 min. ([6]; 10 mg./kg.): 65%

CCCC[C@@H](OC)[C@@H](O)/C=C/[C@H]1[C@H](O)CC(=O)[C@@H]1C/C=C\CCCC(=O)O (relative stereo) [dl-erythro-9-oxo-11α,15-epi-15-hydroxy-16-methoxy-5-cis,13-trans-prostadienoic acid]
inhibition in vivo at 1.9 mg/kg [4]: 19%

CCCC[C@@H](O)[C@@H](O)/C=C/[C@H]1C=CC(=O)[C@@H]1C/C=C\CCCC(=O)O (relative stereo) [dl-erythro-9-oxo-15-epi, 16-dihydroxy-5-cis,10,13-trans-prostatrienoic acid]
inhibition in vivo at 2.1 mg/kg [4]: 54%

CCCC[C@@H](OC)[C@@H](O)/C=C/[C@H]1CCC(=O)[C@@H]1CCCCCCC(=O)O (relative stereo) [dl-erythro-9-oxo-15-epi-hydroxy-16-methoxy-13-trans-prostenoic acid]
ED50 [2]: 7.99 mg/kg | ED50 [3]: > 3.2 mg/kg | ED50 [5]: > 3.2 mg/kg | inhibition in vivo at 2.4 mg/kg [4]: 18%

CCCC[C@@H](O)[C@@H](O)/C=C/[C@@H]1[C@@H](C/C=C\CCCC(=O)O)[C@@H](O)C[C@H]1O (relative stereo) [dl-erythro-9α,11α,15-epi,16-tetrahydroxy-5-cis,13-trans-prostadienoic acid]
inhibition in vivo at 2.2 mg/kg ([4]; 2.2 mg./kg.): 20%
